{"source": "patent US20090082470A1", "about": "“STAT3 INHIBITING COMPOSITIONS AND METHODS” (priority 2007, published 2009)", "key": {"[1]": {"system": "DU 145 prostate cancer cell line", "assay": "Anti-proliferative activity, MTS assay, DU 145", "type": "cell-based", "conditions": "Homo sapiens, MTS assay, 2,000 cells/well, means of 2 experiments in triplicate", "description": "(§1) MCF-7 breast cancer cells, a cell line with no constitutive activation of STAT3, were used as negative control. […] In addition, the anti-proliferative activities are directly proportional to the level of constitutively active STAT3 expression (Table 1)."}, "[2]": {"system": "PC3 prostate cancer cell line", "assay": "Anti-proliferative activity, MTS assay, PC3", "type": "cell-based", "conditions": "MTS assay, 2,000 cells/well, means of 2 experiments in triplicate", "description": "as §1"}, "[3]": {"system": "LNCaP prostate cancer cell line", "assay": "Anti-proliferative activity, MTS assay, LNCaP", "type": "cell-based", "conditions": "Homo sapiens, MTS assay, 2,000 cells/well, means of 2 experiments in triplicate", "description": "as §1"}, "[4]": {"system": "MCF-7 breast cancer cell line", "assay": "Anti-proliferative activity, MTS assay, MCF-7", "type": "cell-based", "description": "as §1"}, "STAT3 [5]": {"system": "STAT3", "assay": "STAT3-dependent luciferase reporter (pLucTKS3) in Caov-3 cells", "type": "cell-based", "conditions": "20 μM, 48h", "description": "(§2) To screen the potential inhibitors that inhibit STAT3 's biological activity, we established Caov-3 cancer cell line that constitutively expresses active STAT3 with a stably integrated STAT3-dependent luciferase reporter construct, pLucTKS3. This construct contains multimerized STAT3 binding sites and its activation specifically depends on STAT3. We examined the effect of eight theoretical STAT3 inhibitors to inhibit STAT3-mediated production of luciferase.\n(§3) According to embodiments illustrated by FIG. 3B, the clones stably transfected with pLucTKS3 STAT3-dependent luciferase reporter or SV40 luciferase reporter were treated with 20 μM of the STAT3 inhibitor for 48h and luciferase activity was measured."}, "SV40 promoter": {"system": "SV40 promoter", "assay": "SV40 luciferase reporter (STAT3-independent)", "type": "cell-based", "conditions": "20 μM, 48h", "description": "as §2, §3"}, "cyclin D1 and Bcl-XL": {"system": "cyclin D1 and Bcl-XL", "assay": "Immunoblot of STAT3-regulated genes", "type": "cell-based", "conditions": "20 μM and 30 μM"}, "STAT3 [6]": {"system": "STAT3", "assay": "Electrophoretic mobility shift assay, STAT3 DNA binding", "type": "biochemical", "conditions": "30 μM, 30 min, MDA-MB-435s cell nuclear extract", "description": "(§4) The reaction mixtures were resolved on 8% polyacylamide gel and visualized with autoradiography."}, "STAT1": {"molecular_target": "T1, STAT1 (Homo sapiens, UniProt P42224)", "T1 construct": "endogenous in cells; host or cells: MDA-MB-435s nuclear extract", "T1 sequence (P42224 1-750)": "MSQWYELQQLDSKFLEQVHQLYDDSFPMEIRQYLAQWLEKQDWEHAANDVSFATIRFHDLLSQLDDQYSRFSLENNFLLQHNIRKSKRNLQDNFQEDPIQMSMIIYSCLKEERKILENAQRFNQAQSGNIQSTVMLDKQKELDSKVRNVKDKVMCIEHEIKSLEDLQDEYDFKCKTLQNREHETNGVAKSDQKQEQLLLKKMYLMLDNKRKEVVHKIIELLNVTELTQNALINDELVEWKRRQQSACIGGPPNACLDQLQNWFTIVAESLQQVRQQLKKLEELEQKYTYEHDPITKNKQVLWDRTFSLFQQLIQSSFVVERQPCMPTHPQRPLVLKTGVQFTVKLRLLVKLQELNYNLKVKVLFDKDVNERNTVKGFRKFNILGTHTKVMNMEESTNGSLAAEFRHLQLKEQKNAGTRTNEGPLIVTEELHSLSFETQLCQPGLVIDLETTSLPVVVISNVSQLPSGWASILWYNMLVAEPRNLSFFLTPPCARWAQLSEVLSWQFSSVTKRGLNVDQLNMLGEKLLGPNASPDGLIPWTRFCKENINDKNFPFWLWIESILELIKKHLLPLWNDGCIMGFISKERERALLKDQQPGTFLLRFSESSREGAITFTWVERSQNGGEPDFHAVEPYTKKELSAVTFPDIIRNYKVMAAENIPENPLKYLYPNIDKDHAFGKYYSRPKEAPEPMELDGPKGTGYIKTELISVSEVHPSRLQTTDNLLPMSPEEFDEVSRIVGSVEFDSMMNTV", "assay": "Electrophoretic mobility shift assay, STAT1 DNA binding", "type": "biochemical", "conditions": "30 μM, MDA-MB-435s cell nuclear extract", "description": "as §4"}, "STAT5": {"system": "STAT5", "assay": "Electrophoretic mobility shift assay, STAT5 DNA binding", "type": "biochemical", "conditions": "30 μM, MDA-MB-435s cell nuclear extract", "description": "as §4"}, "STAT3 [7]": {"system": "STAT3", "assay": "STAT3 dimerization, co-immunoprecipitation of STAT3-FLAG and STAT3-HA", "type": "cell-based", "conditions": "MDA-MB-435s cells, 20 μM, 24h", "experimental": "MDA-MB-435s cells were co-transfected with pCMV-STAT3-FLAG and pCMV-STAT3-HA plasmid constructs and immunoblot analyses were performed with anti-FLAG, anti-HA, and anti-STAT3, the results of which are shown in FIG. 5A. The cell lysates were then subjected to immunoprecipitation with an anti-FLAG or anti-HA antibody and immunoblot analyses were performed with anti-HA or anti-FLAG, respectively, the results of which are shown in FIG. 5B.\nAccording to embodiments of experimental results shown in FIG. 5A, MDA-MB-435s cells were transfected with pCMV-STAT3-Flag and pCMV-STAT3-HA plasmid and the cell lysate was immunoblotted with anti-Flag, anti-HA, or anti-STAT3. According to embodiments shown in FIG. 5B, MDA-MB-435s cells were co-transfected with pCMV-STAT3-Flag and pCMV-STAT3-HA plasmids and were exposed to 20 μM of inhibitor for 24h, then cell lysate was immunoprecipitated with anti-HA or anti-Flag antibody, respectively and immunoblotted with HA, Flag, or STAT3 antibody. As shown in Lane 1 of FIG. 5B, no transfection was performed. In lane 2, untreated cells were transfected with pCMV-STAT3-Flag and pCMV-STAT3-HA plasmids."}, "[8]": {"system": "MDA-MB-468, MDA-MB-435s, and MDA-MB-231 cell lines", "assay": "Apoptosis by FACS, cell lines with constitutively active STAT3", "type": "cell-based", "conditions": "48 h", "experimental": "(§5) According to embodiments of experimental data shown in FIG. 6A, the phosphorylation of STAT3 (Tyr705) in different cell lines: lane 1 with HSF, lane 2 with MCF-7, land 3 with MDA-MB-453, lane 4 with MDA-MB-231, lane 5 with MDA-MB-435s, and lane 6 with MDA-MB-468. According to embodiments shown in FIG. 6B, cell lines were treated with STAT3 inhibitor at concentrations as indicated for 48 h, and apoptotic cells were detected with FACS."}, "[9]": {"system": "MCF-7 and MDA-MB-453 cancer cell lines and human skin fibroblasts (HSF)", "assay": "Apoptosis by FACS, cells lacking constitutively active STAT3", "type": "cell-based", "conditions": "48 h, lack constitutively active STAT3", "experimental": "as §5"}, "JAK2": {"molecular_target": "T2, JAK2 (Homo sapiens, UniProt O60674)", "T2 construct": "endogenous in cells", "T2 sequence (O60674 whole entry)": "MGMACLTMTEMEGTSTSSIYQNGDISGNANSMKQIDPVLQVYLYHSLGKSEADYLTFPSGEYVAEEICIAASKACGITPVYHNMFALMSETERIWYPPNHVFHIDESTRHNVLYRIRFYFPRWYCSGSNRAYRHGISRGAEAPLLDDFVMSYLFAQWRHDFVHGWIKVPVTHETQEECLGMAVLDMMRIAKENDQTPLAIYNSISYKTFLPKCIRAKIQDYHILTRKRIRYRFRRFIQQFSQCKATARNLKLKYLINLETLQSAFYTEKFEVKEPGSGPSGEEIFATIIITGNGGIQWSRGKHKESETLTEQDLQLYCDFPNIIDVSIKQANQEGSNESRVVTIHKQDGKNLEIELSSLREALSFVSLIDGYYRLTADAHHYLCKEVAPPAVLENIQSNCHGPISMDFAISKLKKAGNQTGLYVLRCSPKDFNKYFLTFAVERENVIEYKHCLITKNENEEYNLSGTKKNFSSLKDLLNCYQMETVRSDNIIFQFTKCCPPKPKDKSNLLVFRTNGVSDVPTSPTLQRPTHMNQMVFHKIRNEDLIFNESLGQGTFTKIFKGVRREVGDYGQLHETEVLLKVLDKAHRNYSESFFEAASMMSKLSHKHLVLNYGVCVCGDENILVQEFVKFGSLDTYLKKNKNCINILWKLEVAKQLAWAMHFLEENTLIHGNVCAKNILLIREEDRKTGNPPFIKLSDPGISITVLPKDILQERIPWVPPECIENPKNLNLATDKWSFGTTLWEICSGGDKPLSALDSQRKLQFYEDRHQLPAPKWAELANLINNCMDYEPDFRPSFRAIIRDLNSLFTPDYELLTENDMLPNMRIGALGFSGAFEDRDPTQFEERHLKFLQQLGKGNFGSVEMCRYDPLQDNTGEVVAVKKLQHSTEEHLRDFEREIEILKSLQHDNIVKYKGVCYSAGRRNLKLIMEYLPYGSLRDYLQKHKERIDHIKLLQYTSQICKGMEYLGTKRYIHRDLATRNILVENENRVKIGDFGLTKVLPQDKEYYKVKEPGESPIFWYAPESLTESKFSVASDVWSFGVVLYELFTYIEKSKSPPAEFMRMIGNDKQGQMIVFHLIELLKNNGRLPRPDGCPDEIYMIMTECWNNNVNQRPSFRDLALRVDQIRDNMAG", "assay": "Phosphorylation of JAK2", "type": "cell-based"}, "Src": {"molecular_target": "T3, Src (Homo sapiens, UniProt P12931)", "T3 construct": "endogenous in cells", "T3 sequence (P12931 whole entry)": "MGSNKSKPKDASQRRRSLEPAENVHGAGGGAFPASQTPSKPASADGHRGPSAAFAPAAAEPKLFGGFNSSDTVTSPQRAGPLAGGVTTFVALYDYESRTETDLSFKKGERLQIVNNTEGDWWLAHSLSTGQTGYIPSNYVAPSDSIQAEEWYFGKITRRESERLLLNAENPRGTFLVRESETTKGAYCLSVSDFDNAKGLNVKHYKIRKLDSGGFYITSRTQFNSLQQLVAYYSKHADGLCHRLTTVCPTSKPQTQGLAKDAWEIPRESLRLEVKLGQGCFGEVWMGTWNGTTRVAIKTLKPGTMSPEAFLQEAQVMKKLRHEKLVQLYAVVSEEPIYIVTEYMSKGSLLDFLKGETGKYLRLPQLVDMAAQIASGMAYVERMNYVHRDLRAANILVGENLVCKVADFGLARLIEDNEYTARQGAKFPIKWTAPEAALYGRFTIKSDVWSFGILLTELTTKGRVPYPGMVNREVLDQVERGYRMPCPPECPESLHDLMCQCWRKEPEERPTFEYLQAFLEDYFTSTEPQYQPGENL", "assay": "Phosphorylation of Src", "type": "cell-based"}, "AKT": {"system": "AKT", "assay": "Phosphorylation of AKT", "type": "cell-based"}, "ERK½": {"system": "ERK½", "assay": "Phosphorylation of ERK½", "type": "cell-based"}}}
{"smiles": "C[C@@H]1CC(=O)c2c(ccc3c2C(=O)c2cccc(O)c2C3=O)C1", "note": "[STA-21, deoxytetrangomycin]", "values": [{"measurement": "IC50", "setting": "[1]", "result": 12.2, "unit": "µM"}, {"measurement": "IC50", "setting": "[2]", "result": 18.7, "unit": "µM"}, {"measurement": "IC50", "setting": "[3]", "result": 30.1, "unit": "µM"}, {"measurement": "IC50", "setting": "[4]; Homo sapiens, MCF7, MTS assay, 2,000 cells/well, no constitutive STAT3 activation", "result": "> 100", "unit": "µM"}, {"measurement": "anti-proliferative activity in MCF-7 cells (in words)", "setting": "[4]; cells with no constitutive STAT3 activation", "result": "did not show any antiproliferative activity"}, {"measurement": "reduction in luciferase activity, pLucTKS3 transfected cells", "setting": "STAT3 [5]", "result": "~6", "unit": "fold"}, {"measurement": "luciferase activity under control of the SV40 promoter", "setting": "SV40 promoter", "result": "no significant difference"}, {"measurement": "expression of STAT3-regulated genes cyclin D1 and Bcl-XL", "setting": "cyclin D1 and Bcl-XL", "result": "inhibits the expression"}, {"measurement": "STAT3 DNA binding activity", "setting": "STAT3 [6]", "result": "specifically blocked STAT3 DNA binding"}, {"measurement": "STAT1 DNA binding", "setting": "STAT1", "result": "did not inhibit"}, {"measurement": "STAT5 DNA binding", "setting": "STAT5", "result": "did not inhibit"}, {"measurement": "ability of STAT3-FLAG and STAT3-HA to dimerize", "setting": "STAT3 [7]", "result": "significantly reduced"}, {"measurement": "increase in percentage of apoptotic cells", "setting": "[8]", "result": "5-30 fold"}, {"measurement": "increase in percentage of apoptotic cells", "setting": "[9]", "result": "0.5-1.2 fold"}, {"measurement": "phosphorylation of JAK2", "setting": "JAK2", "result": "did not inhibit"}, {"measurement": "phosphorylation of Src", "setting": "Src", "result": "did not inhibit"}, {"measurement": "phosphorylation of AKT", "setting": "AKT", "result": "did not inhibit"}, {"measurement": "phosphorylation of ERK½", "setting": "ERK½", "result": "did not inhibit"}]}
